Drawing on the SangsterLogP compilation, this text covers logP for 15 compounds.

SMILES strings stand for the structures.

The series is described as follows: method code SF, from DOI: 10.1002/em.2850190107, PMID: 1732103.

In general, logP refers to a log measure of how a compound divides between an organic and an aqueous phase. Low values mean a more hydrophilic compound, high ones a more lipophilic compound. Take `Nc1ccc2c(c1)Cc1ccccc1-2`: the logP was 3.14.

In turn, `Nc1cc(Cl)ccc1O` yielded a log partition coefficient (logP) of 1.81.

`Cc1ccc(C)c(N)c1` returned a logP of 1.83.

In turn, `Nc1ccc2c(c1)Cc1cc(Br)ccc1-2` yielded a log partition coefficient (logP) of 3.92.

For the compound `Cc1ccc(N)c(N)c1`, the logP is 0.66.

For `Nc1ccccc1-c1ccccc1N`, the logP was 1.34.

Turning to `COc1ccc(N)c(C)c1`, the logP is 1.23.

The compound `Nc1cc2ccccc2c2ccccc12` came in with a logP of 3.56.

Compound `Nc1ccc2c3c(cccc13)-c1ccccc1-2` returned a logP of 4.2.

Turning to `Nc1ccc(Oc2ccc(N)cc2)cc1`, the logP was found to be 1.36.

`Nc1cccc2c1Cc1ccccc1-2` registered a log partition coefficient (logP) of 3.18.

The compound `Nc1cccc(C(F)(F)F)c1` had a logP of 2.29.

Take `Cc1ccc(N)cc1N`: the log partition coefficient (logP) was 0.14.

In turn, `COc1cc(-c2ccc(N)c(OC)c2)ccc1N` showed a log partition coefficient (logP) of 1.81.

Compound `Nc1cccc2cc3ccccc3cc12` had a lipophilicity (logP) of 3.69.
